# Reference: PubChem BioAssay (NCI)
#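 Briefly, cells in 96-well plates were exposed to five compound concentrations for 48 h, and endpoints were estimated by linear interpolation. The concentration for 50% growth inhibition is given as GI50. TGI denotes the concentration required for complete inhibition of growth.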
# What was measured:
# Experiment in all cases: NCI-60 cell line screen, 48 h
# OVCAR-8 ovarian = system: OVCAR-8 ovarian
# PC-3 prostate = system: PC-3 prostate
# HCT-116 colon = system: HCT-116 colon
# EKVX NSCLC = system: EKVX NSCLC
# ACHN renal = system: ACHN renal
# MCF7 breast = system: MCF7 breast
# IGROV1 ovarian = system: IGROV1 ovarian
# OVCAR-5 ovarian = system: OVCAR-5 ovarian
# K-562 leukemia = system: K-562 leukemia
# MALME-3M melanoma = system: MALME-3M melanoma
SMILES,GI50 (OVCAR-8 ovarian) [µM],TGI (OVCAR-8 ovarian) [µM],GI50 (PC-3 prostate) [µM],TGI (PC-3 prostate) [µM],GI50 (HCT-116 colon) [µM],TGI (HCT-116 colon) [µM],GI50 (EKVX NSCLC) [µM],TGI (EKVX NSCLC) [µM],GI50 (ACHN renal) [µM],TGI (ACHN renal) [µM],GI50 (MCF7 breast) [µM],TGI (MCF7 breast) [µM],GI50 (IGROV1 ovarian) [µM],TGI (IGROV1 ovarian) [µM],GI50 (OVCAR-5 ovarian) [µM],TGI (OVCAR-5 ovarian) [µM],GI50 (K-562 leukemia) [µM],TGI (K-562 leukemia) [µM],GI50 (MALME-3M melanoma) [µM],TGI (MALME-3M melanoma) [µM]
Nc1nnc(Cn2c(-c3ccccc3)nc3ccc(Br)cc3c2=O)s1,1.25,41,38.2,> 100,13.6,50.3,> 100,> 100,39,> 100,> 100,> 100,18.3,> 100,> 100,> 100,–,–,–,–
O=C(OCc1ccc2c(Cl)cc(Cl)c(O)c2n1)c1cc2ccccc2[nH]1,0.818,3.05,0.407,0.936,0.174,0.372,1.49,3,0.219,0.519,–,–,0.219,0.5,0.65,1.97,0.336,10.2,1.26,2.6
O=C(NNC(=O)c1cc(/C=C/c2cccc([N+](=O)[O-])c2)[nH]c(=S)n1)Nc1ccc(Cl)cc1,–,> 100,–,–,–,60.9,–,> 100,–,> 100,–,–,–,> 100,–,> 100,–,> 100,–,> 100
Cc1nc(Nc2ccc([N+](=O)[O-])cc2)sc1C(/C=C/c1ccc(N(C)C)cc1)=N/NC(=O)c1ccccc1,–,> 100,–,–,–,> 100,–,> 100,–,> 100,–,–,–,> 100,–,> 100,–,> 100,–,> 100
c1ccc(COCC2OC3c4ccccc4COC3C2OCc2ccccc2)cc1 (configuration not stated),–,> 100,–,–,–,> 100,–,> 100,–,> 100,–,–,–,> 100,–,> 100,–,> 100,–,> 100
N#CC1(C=O)c2ccccc2C=CN1C(=O)c1ccccc1 (configuration not stated),–,> 100,–,–,–,> 100,–,> 100,–,> 100,–,–,–,> 100,–,–,–,91.6,–,> 100
O=C([O-])c1ccc(C(=O)[O-])cc1.O=C([O-])c1ccc(C(=O)[O-])cc1.[Mo+2].[Mo+2],> 100,> 100,–,–,> 100,> 100,> 100,> 100,> 100,> 100,–,–,> 100,> 100,> 100,> 100,> 100,> 100,> 100,> 100
CCC1CCc2nc3sc(C(=O)Nc4ccccc4C)c(N)c3cc2C1 (configuration not stated),> 100,> 100,0.622,> 100,0.348,> 100,–,–,0.835,> 100,0.287,> 100,> 100,> 100,–,–,–,–,–,–
Cn1c2c(c3ccccc31)CCN(CCCCN1CCN(c3cccc(Cl)c3)CC1)C2=O,–,48,–,–,–,19.4,–,69.2,–,37.6,–,–,–,47,–,16.9,–,27.6,–,–
CC(=O)[O-].O=C([CH-]C(=O)c1ccccc1)c1ccccc1.O=C([CH-]C(=O)c1ccccc1)c1ccccc1.[Y+3],3.04,20.6,–,–,4.97,19.3,3.59,17.8,5.52,22.9,–,–,6.94,35.8,17.3,80.6,3.45,> 100,8.02,39.5
O=C1C2c3[nH]c4ccccc4c3[C@@H]3CCCCC3C2C(=O)N1c1ccccc1 (some centres not stated),–,52.9,–,–,–,–,–,37.5,–,81.9,–,–,–,74.8,–,51.8,–,> 100,–,38.4
O=[N+]([O-])c1ccc(Sc2c3ccccc3nc3ccccc23)nc1,–,> 49.3,–,28.9,–,4.22,–,31,–,20.5,–,9.15,–,30.6,–,33.2,–,–,–,6.09
O=C(CC(=O)C1CCOC1=O)C(=O)Nc1ccc(Cl)cc1Cl (configuration not stated),–,> 100,–,–,–,> 100,–,> 100,–,> 100,–,–,–,> 100,–,> 100,–,> 100,–,> 100
O=C1C(Cl)=C(Nc2cccc(O)c2)C(=O)N1c1ccccc1Cl,32.1,> 100,10.7,31.2,20,70.9,76.1,> 100,> 100,> 100,29.8,> 100,–,–,55.2,> 100,25,63.2,10.9,69.1
CCCCCCCCCCCCN(O)C(=O)c1ccccc1,–,74.3,–,–,–,> 100,–,84.2,–,> 100,–,–,–,> 100,–,82.2,–,> 100,–,60.7
CN(C)c1ccc(/C=N\N2C(=O)c3ccccc3C2=O)cc1,–,> 100,–,–,–,> 100,–,> 100,–,> 100,–,–,–,> 100,–,> 100,–,> 100,–,> 100
CCOC(=O)NC(=O)c1cn(CCN2CCN(C(=O)CCCCCCCCCCNc3ncnc4nc[nH]c34)CC2)c(=O)[nH]c1=O,–,> 100,–,–,–,> 100,–,> 100,–,> 100,–,–,–,> 100,–,> 100,–,> 100,–,> 100
CCCCCC/C=C\CCCCCCCCCC1=CC(=O)C=C(OC)C1=O,–,12.5,–,11,–,12.2,–,12.5,–,11.6,–,15.3,–,3.86,–,17.8,–,–,–,29.4
COC12CC(=O)C(C(C)=O)=C(O)C1(C)c1c(OC(C)=O)c(C)c(O)c(C(C)=O)c1O2 (configuration not stated),–,> 100,–,–,–,> 100,–,93.6,–,99.2,–,–,–,> 100,–,> 100,–,> 100,–,60.2
N[C@@H]1CCCN(c2c(/C=C3\SC(=O)NC3=O)cccc2-c2ccccc2)C1,14,27.9,10.2,25.2,13.1,26.9,–,–,14.4,29.5,11.4,27.1,17.2,35.1,10.5,23.4,11.7,54.2,7.52,24.5
